# Assay results reported in US5817667A, “Compounds and methods for the treatment of cancer” (University of Georgia Research Foudation, priority 1994, dated 1998).
# Assays:
# NCI-H460 = assay: NCI cancer screening, growth inhibition (SRB); assay type: cell-based; details: Non-Small Cell Lung Cancer, 48 hours exposure
# HOP-62 = assay: NCI cancer screening, growth inhibition (SRB); assay type: cell-based; details: Non-Small Cell Lung Cancer, 48 hours exposure
# [1] = test system: prostate cancer cell lines; assay: NCI cancer screening, relative sensitivity (FIG. 4); assay type: cell-based; details: FIG. 4, certain prostate cancer cell lines
# Source text: (§1) Bars extending to the right represent sensitivity of the cell line to (-)-OddC in excess of the average sensitivity of all tested cell lines. […] Bars extending to the left correspondingly imply sensitivity less than the mean. These cell lines can be easily determined from Table 2, as the log10 concentration will be preceded by a ">".
# colon cell lines = assay: as above; assay type: cell-based; details: FIG. 4, certain colon cell lines
# Source text: as §1
# leukemia cell lines = assay: as above; assay type: cell-based; details: FIG. 4, certain leukemia cell lines
# Source text: as §1
# [2] = test system: each type of cancer cell tested; assay: as above; assay type: cell-based; details: FIG. 4, on the basis of GI50; at least one cell line of each type
# Source text: as §1
# SP-268 = assay: NCI cancer screening, growth inhibition (SRB); assay type: cell-based; details: 48 h, read-out: Log10 GI50 (converted)
# DU-145 = assay: NCI cancer screening, growth inhibition (SRB); assay type: cell-based; details: Prostate Cancer; 48 hours exposure
# MDA-MB-435 = assay: NCI cancer screening, growth inhibition (SRB); assay type: cell-based; details: Homo sapiens, MDA-MB-435, 48 h, read-out: Log10 GI50 (converted)
# PC-3 = assay: NCI cancer screening, growth inhibition (SRB); assay type: cell-based; details: Prostate Cancer, 48 hours exposure
# T-47D = assay: NCI cancer screening, growth inhibition (SRB); assay type: cell-based
# U251 = assay: NCI cancer screening, growth inhibition (SRB); assay type: cell-based; details: CNS Cancer, 48 hours exposure
# OVCAR-5 = assay: NCI cancer screening, growth inhibition (SRB); assay type: cell-based; details: Ovarian Cancer, 48 hours exposure
# UO-31 = assay: NCI cancer screening, growth inhibition (SRB); assay type: cell-based; details: Renal Cancer, 48 hours exposure
# RL-60(TB) = assay: NCI cancer screening, growth inhibition (SRB); assay type: cell-based; details: Leukemia, 48 hours exposure
# MDA-N = assay: NCI cancer screening, growth inhibition (SRB); assay type: cell-based; details: Breast Cancer, 48 hours exposure
# RPMI-2.26 = assay: NCI cancer screening, growth inhibition (SRB); assay type: cell-based; details: 48 h, read-out: Log10 GI50 (converted)
# 785-4 = assay: NCI cancer screening, growth inhibition (SRB); assay type: cell-based; details: Renal Cancer, 48 hours exposure
# SK-OV-3 = assay: NCI cancer screening, growth inhibition (SRB); assay type: cell-based; details: Homo sapiens, SK-OV-3, 48 h, read-out: Log10 GI50 (converted)
# HT29 = assay: NCI cancer screening, growth inhibition (SRB); assay type: cell-based
# UACC-257 = assay: NCI cancer screening, growth inhibition (SRB); assay type: cell-based
# Leukemia P388 cells = assay: In vivo treatment of leukemia P388 cells implanted ip in BDF1 mice
# NCI-H322M = details: Non-Small Cell Lung Cancer; 48 hours exposure
# M14 = assay: NCI cancer screening, growth inhibition (SRB); assay type: cell-based; details: Melanoma, 48 hours exposure
# CAKI-1 = assay: NCI cancer screening, growth inhibition (SRB); assay type: cell-based; details: Renal Cancer, 48 hours exposure
# SNB-19 = assay: NCI cancer screening, growth inhibition (SRB); assay type: cell-based; details: CNS Cancer, 48 hours exposure
# RXF-393 = assay: NCI cancer screening, growth inhibition (SRB); assay type: cell-based; details: Renal Cancer, 48 hours exposure
# HCT-15 = assay: NCI cancer screening, growth inhibition (SRB); assay type: cell-based; details: Colon Cancer, 48 hours exposure
# K-562 = assay: NCI cancer screening, growth inhibition (SRB); assay type: cell-based; details: Leukemia, 48 hours exposure
# [3] = NCI cancer screening, growth inhibition (SRB); assay type: cell-based; details: Leukemia; 48 hours exposure; read-out: Log10 GI50 (converted)
# BSOLT-4 = assay: NCI cancer screening, growth inhibition (SRB); assay type: cell-based; details: Leukemia; 48 hours exposure
# K2112 = details: Colon Cancer; 48 hours exposure
# BT-549 = assay: NCI cancer screening, growth inhibition (SRB); assay type: cell-based; details: Breast Cancer, 48 hours exposure
# COLO205 = assay: NCI cancer screening, growth inhibition (SRB); assay type: cell-based; details: Homo sapiens, COLO 205, 48 h, read-out: Log10 GI50 (converted)
# [4] = read-out: Log10 GI50 (converted)
# [5] = 25 mg/kg ip, twice a day, days 1 to 5
compound,measurement,setting,value
"Nc1ccn([C@@H]2CO[C@H](CO)O2)c(=O)n1 [(-)-OddC, (-)-(2S,4S)-1-(2-hydroxymethyl-1,3-dioxolan-4-yl)cytosine]",GI50,"NCI-H460; Homo sapiens, NCI-H460, read-out: Log10 GI50 (converted)",47.9 µM
same,Log10 TGI,NCI-H460,> -4.00
same,GI50,"HOP-62; Homo sapiens, HOP-62, read-out: Log10 GI50 (converted)",0.589 µM
same,Log10 TGI,HOP-62,-4.71
same,sensitivity to (-)-OddC,[1],extreme sensitivity
same,sensitivity to (-)-OddC,colon cell lines,extreme sensitivity
same,sensitivity to (-)-OddC,leukemia cell lines,extreme sensitivity
same,sensitivity to (-)-OddC,[2],exhibited sensitivity
same,GI50,SP-268,6.61 µM
same,Log10 TGI,DU-145,> -4.00
same,GI50,MDA-MB-435,24 µM
same,GI50,"PC-3; Homo sapiens, PC-3, read-out: Log10 GI50 (converted)",0.513 µM
same,Log10 TGI,PC-3,> -4.00
same,Log10 TGI,"T-47D; Breast Cancer, 48 hours exposure",> -4.00
same,GI50,"T-47D; Homo sapiens, T47D, 48 h, read-out: Log10 GI50 (converted)",> 100 µM
same,Log10 TGI,U251,> -4.00
same,GI50,"U251; Homo sapiens, U-251, read-out: Log10 GI50 (converted)",12.3 µM
same,GI50,"OVCAR-5; Homo sapiens, OVCAR-5, read-out: Log10 GI50 (converted)",38.9 µM
same,Log10 TGI,OVCAR-5,> -4.00
same,GI50,"UO-31; Homo sapiens, UO-31, read-out: Log10 GI50 (converted)",2.51 µM
same,Log10 TGI,UO-31,> -4.00
same,Log10 TGI,RL-60(TB),> -4.00
same,GI50,RL-60(TB); [4],0.525 µM
same,Log10 TGI,MDA-N,> -4.00
same,GI50,"MDA-N; Homo sapiens, MDA-N, read-out: Log10 GI50 (converted)",46.8 µM
same,GI50,RPMI-2.26,93.3 µM
same,Log10 TGI,785-4,> -4.00
same,GI50,785-4; [4],4.37 µM
same,GI50,SK-OV-3,4.47 µM
same,Log10 TGI,"HT29; Colon Cancer, 48 hours exposure",> -4.00
same,GI50,"HT29; Homo sapiens, HT-29, 48 h, read-out: Log10 GI50 (converted)",> 100 µM
same,GI50,"UACC-257; Homo sapiens, UACC-257, 48 h, read-out: Log10 GI50 (converted)",> 100 µM
same,Log10 TGI,"UACC-257; Melanoma, 48 hours exposure",> -4.00
same,Cures/Total (survivors equal or greater than 45 day life span),Leukemia P388 cells; [5],1/6
same,ILS (Increased Life Span percent above control),Leukemia P388 cells; [5],103%
same,Mean Survival Time,"Leukemia P388 cells; 25 mg/kg ip, twice a day, days 1 to 5 (control 13.3 days)",27 days
same,life span increase of the remaining five mice,"Leukemia P388 cells; 25 mg/kg/dose ip, twice daily for five days",103%
same,long term survivors,Leukemia P388 cells; of six mice treated with 25 mg/kg/dose,one long term survivor
same,Log10 TGI,NCI-H322M,> -4.00
same,GI50,"M14; Homo sapiens, M14, read-out: Log10 GI50 (converted)",0.537 µM
same,Log10 TGI,M14,-5.07
same,GI50,"CAKI-1; Homo sapiens, CAKI-1, read-out: Log10 GI50 (converted)",0.224 µM
same,Log10 TGI,CAKI-1,-4.87
same,Log10 TGI,SNB-19,> -4.00
same,GI50,"SNB-19; Homo sapiens, SNB-19, read-out: Log10 GI50 (converted)",1.95 µM
same,GI50,"RXF-393; Homo sapiens, RXF 393, read-out: Log10 GI50 (converted)",0.676 µM
same,Log10 TGI,RXF-393,> -4.00
same,Log10 TGI,HCT-15,> -4.00
same,GI50,"HCT-15; Homo sapiens, HCT-15, read-out: Log10 GI50 (converted)",4.07 µM
same,GI50,"K-562; Homo sapiens, K562, read-out: Log10 GI50 (converted)",25.7 µM
same,Log10 TGI,K-562,> -4.00
same,GI50,[3],0.219 µM
same,Log10 TGI,BSOLT-4,-4.39
same,Log10 TGI,K2112,> -4.00
same,Log10 TGI,BT-549,> -4.00
same,GI50,"BT-549; Homo sapiens, BT-549, read-out: Log10 GI50 (converted)",25.7 µM
same,GI50,COLO205,93.3 µM
